The values that follow come from ChEMBL document CHEMBL1765086, “Structural modifications of UMP, UDP, and UTP leading to subtype-selective agonists for P2Y2, P2Y4, and P2Y6 receptors” (J Med Chem, 2011).

Experiment [1] addresses T1, P2Y purinoceptor 2 (Homo sapiens, UniProt P41231). Nature of the experiment: Agonist activity at human recombinant P2Y2 receptor expressed in human 1321N1 cells assessed as [3H]inositol phosphate intracellular accumulation by scintillation proximity assay. The class given is functional, cell-based.
Experiment [2] is filed under the species Homo sapiens. As to the kind of experiment: Selectivity ratio of EC50 for human P2Y2 receptor to EC50 for human P2Y4 receptor.
Experiment [3] deals with T2, P2Y purinoceptor 6 (Homo sapiens, UniProt Q15077). As to the kind of experiment: Agonist activity at human recombinant P2Y6 receptor expressed in human 1321N1 cells assessed as [3H]inositol phosphate intracellular accumulation by scintillation proximity assay. It is filed as functional, cell-based. On the technique in general: SPA uses beads or plates that emit light when radiolabelled molecules are held near them.

The species named for experiment [4] is Homo sapiens. As to the kind of experiment: Selectivity ratio of EC50 for human P2Y6 receptor to EC50 for human P2Y2 receptor.
For experiment [5], the species on record is Homo sapiens. Nature of the experiment: Selectivity ratio of EC50 for human P2Y4 receptor to EC50 for human P2Y2 receptor.
The species entered for experiment [6] is Homo sapiens. Nature of the experiment: Selectivity ratio of EC50 for human P2Y6 receptor to EC50 for human P2Y4 receptor.
Experiment [7] has as its target T3, P2Y purinoceptor 4 (Homo sapiens, UniProt P51582). Nature of the experiment: Agonist activity at human recombinant P2Y4 receptor expressed in human 1321N1 cells assessed as [3H]inositol phosphate intracellular accumulation by scintillation proximity assay. It is filed as functional, cell-based.
Experiment [8] addresses T1, P2Y purinoceptor 2. Nature of the experiment: Ratio of compound EC50 to UDP EC50 for human recombinant P2Y2 receptor.
In experiment [9] the target is T2, P2Y purinoceptor 6. As to the kind of experiment: Agonist activity at P2Y6 receptor. It is filed as functional.
Experiment [10] concerns the target T3, P2Y purinoceptor 4. As to the kind of experiment: Agonist activity at P2Y4 receptor. It is filed as functional.
For experiment [11], the target named is T1, P2Y purinoceptor 2. Nature of the experiment: Agonist activity at P2Y2 receptor. The class given is functional.
Experiment [12] is filed under the species Homo sapiens. Nature of the experiment: Selectivity ratio of EC50 for human P2Y2 receptor to EC50 for human P2Y6 receptor.
Experiment [13] is filed under the species Homo sapiens. Nature of the experiment: Selectivity ratio of EC50 for human P2Y4 receptor to EC50 for human P2Y6 receptor.

Some results are limits rather than exact numbers.

One may read the EC50 as the concentration at which the effect is half-maximal.

T2 sequence (Q15077 whole entry): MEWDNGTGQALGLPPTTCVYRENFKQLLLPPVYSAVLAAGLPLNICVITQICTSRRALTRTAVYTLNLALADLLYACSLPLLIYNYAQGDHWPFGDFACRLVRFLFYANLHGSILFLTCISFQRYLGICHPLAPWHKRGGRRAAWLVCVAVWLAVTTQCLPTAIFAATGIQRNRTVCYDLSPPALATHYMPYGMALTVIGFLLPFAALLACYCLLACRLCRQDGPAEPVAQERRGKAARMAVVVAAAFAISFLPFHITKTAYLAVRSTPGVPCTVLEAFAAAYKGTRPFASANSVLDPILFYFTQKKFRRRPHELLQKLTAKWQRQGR
T1 sequence (P41231 whole entry): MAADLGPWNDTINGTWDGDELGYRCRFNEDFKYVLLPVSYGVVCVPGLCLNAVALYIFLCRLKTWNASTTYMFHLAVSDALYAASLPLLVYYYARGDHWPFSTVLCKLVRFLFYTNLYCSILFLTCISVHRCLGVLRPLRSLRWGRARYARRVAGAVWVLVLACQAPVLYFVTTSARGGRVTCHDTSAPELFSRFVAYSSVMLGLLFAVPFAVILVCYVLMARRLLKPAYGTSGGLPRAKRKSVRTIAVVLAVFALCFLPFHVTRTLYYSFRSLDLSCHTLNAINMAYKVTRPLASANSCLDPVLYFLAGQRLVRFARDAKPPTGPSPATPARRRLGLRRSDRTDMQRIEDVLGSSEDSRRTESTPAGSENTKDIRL
T3 sequence (P51582 whole entry): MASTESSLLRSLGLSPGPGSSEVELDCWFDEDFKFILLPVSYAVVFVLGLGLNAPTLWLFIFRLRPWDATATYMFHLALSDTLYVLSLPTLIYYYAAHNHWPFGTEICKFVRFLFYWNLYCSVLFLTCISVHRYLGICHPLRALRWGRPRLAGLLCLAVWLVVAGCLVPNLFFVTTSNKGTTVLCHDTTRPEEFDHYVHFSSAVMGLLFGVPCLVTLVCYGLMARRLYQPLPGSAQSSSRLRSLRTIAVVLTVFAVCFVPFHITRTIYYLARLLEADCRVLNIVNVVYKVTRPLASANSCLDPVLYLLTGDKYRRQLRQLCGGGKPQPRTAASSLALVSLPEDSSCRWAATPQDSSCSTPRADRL

On to `Nc1nc(=O)ccn1[C@@H]1O[C@H](COP(=O)(O)O)[C@@H](O)[C@H]1O`, for which the results for the EC50 in experiment [1] and in [3] were over 100000 nM and over 100 µM, respectively. For the same compound, the Ratio EC50 is over 20 in experiment [2], over 100 in [4], over 100 in experiment [5] and over 20 in experiment [6].
On to `CSc1nc(=O)ccn1[C@@H]1O[C@H](COP(=O)(O)O)[C@@H](O)[C@H]1O`, for which the figures for the EC50 in [1], in experiment [3] and in [7] were 2900 nM, over 100 µM and over 100 µM, respectively.
On to `CSc1nc(=O)ccn1[C@@H]1O[C@H](COP(=O)(O)OP(=O)(O)O)[C@@H](O)[C@H]1O`, for which the figures for the EC50 in experiment [1], in experiment [3] and in experiment [7] were 523 nM, 4.7 µM and 1.52 µM, respectively. For the same compound, the Ratio EC50 in experiment [8] is 33.
For `O=c1ccn([C@@H]2O[C@H](COP(=O)(O)OP(=O)(O)C(F)(F)P(=O)(O)O)[C@@H](O)[C@H]2O)c(=O)[nH]1`, the EC50 in experiment [1] is 4900 nM; in experiment [3], 2.63 µM; in [7] it was over 100 µM. Further, the Ratio EC50 in experiment [4] is 2.
For the compound `O=c1ccn([C@@H]2O[C@H](COP(=O)(O)OP(=O)(O)O)[C@@H](O)[C@H]2O)c(=O)[nH]1` [URIDINE_DIPHOSPHATE], the EC50 in experiment [1] was 16500 nM; in experiment [3], 0.048 µM; in experiment [7], 14 µM.
`Nc1ccn([C@H]2C[C@H](O)[C@@H](COP(=O)(O)OP(=O)(O)OP(=O)(O)OP(=O)(O)OC[C@H]3O[C@@H](n4ccc(=O)[nH]c4=O)[C@H](O)[C@@H]3O)O2)c(=O)n1` [DENUFOSOL TETRASODIUM]: the EC50 is over 1000 nM in experiment [9], 800 nM in [10] and 200 nM in experiment [11].
For `O=c1ccn([C@@H]2O[C@H](COP(=O)(O)OP(=O)(O)O)[C@@H](O)[C@H]2O)c(SCCc2ccccc2)n1`, the values for the EC50 in [1], in experiment [3] and in experiment [7] were 544 nM, 2.5 µM and at least 100 µM, respectively.
In the same order, the values of `O=c1ccn([C@@H]2O[C@H](COP(=O)(O)OP(=O)(O)C(Cl)(Cl)P(=O)(O)O)[C@@H](O)[C@H]2O)c(=O)[nH]1` are 612 nM, 6.2 µM and at least 100 µM.
Consider `O=c1ccn([C@@H]2O[C@H](COP(=O)(O)OP(=O)(O)OP(=O)(O)O)[C@@H](O)[C@H]2O)c(=O)[nH]1` [URIDINE TRIPHOSPHATE], for which the half-maximal effective concentration (EC50) in experiment [1] is 17.9 nM; in experiment [7], 0.0884 µM.
As to `O=c1ccn([C@@H]2O[C@H](COP(=O)(O)OP(=O)(O)OP(=O)(O)OP(=O)(O)OC[C@H]3O[C@@H](n4ccc(=O)[nH]c4=O)[C@H](O)[C@@H]3O)[C@@H](O)[C@H]2O)c(=O)[nH]1` [DIQUAFOSOL TETRASODIUM], the concentration giving a half-maximal response (EC50) in experiment [9] was determined as 2000 nM; in experiment [10] it was 400 nM.
As to `COc1nc(=O)ccn1[C@@H]1O[C@H](COP(=O)(O)OP(=O)(O)O)[C@@H](O)[C@H]1O`, the values for the EC50 in experiment [1], in experiment [3] and in experiment [7] were 907 nM, 1.37 µM and 4.49 µM, respectively.
Regarding `Nc1nc(=O)ccn1[C@@H]1O[C@H](COP(=O)(O)OP(=O)(O)O)[C@@H](O)[C@H]1O`, the EC50 in [1] was 604 nM; in experiment [3], at least 100 µM; in experiment [7] it was at least 100 µM. For the same compound, the Ratio EC50 in experiment [4] and in [5] was over 100 in each case.
Consider `O=c1[nH]c(=S)ccn1[C@@H]1O[C@H](COP(=O)(O)OP(=O)(O)C(F)(F)P(=O)(O)O)[C@@H](O)[C@H]1O`, for which the EC50 in [1] turned out to be 134 nM; in experiment [3], 7 µM; in experiment [7] it was 9.3 µM. For the same compound, the Ratio EC50 in [4] and in experiment [5] was over 60 in each case.
Consider `O=c1ccn([C@@H]2O[C@H](COP(=O)(O)O)[C@@H](O)[C@H]2O)c(SCCc2ccccc2)n1`, for which the EC50 in experiment [1] is 1300 nM; in experiment [3] it was over 100 µM; in [7], over 100 µM. The Ratio EC50 is 100 in experiment [4] and over 100 in experiment [5].
Regarding `O=C(Cn1c(=O)ccn([C@@H]2O[C@H](COP(=O)(O)OP(=O)(O)C(Cl)(Cl)P(=O)(O)O)[C@@H](O)[C@H]2O)c1=O)c1ccccc1`, the Ratio EC50 was determined as 6 in experiment [12] and 50 in experiment [13]. The concentration for a half-maximal effect (EC50) in experiment [1] is 826 nM; in [3], 0.142 µM; in experiment [7], 7.3 µM.
Turning to `CCSc1nc(=O)ccn1[C@@H]1O[C@H](COP(=O)(O)O)[C@@H](O)[C@H]1O`, the values for the EC50 in [1], in experiment [3] and in experiment [7] were 1500 nM, over 100 µM and 4.33 µM, respectively.
In the same order, the values of `CCCSc1nc(=O)ccn1[C@@H]1O[C@H](COP(=O)(O)O)[C@@H](O)[C@H]1O` are 4800 nM, 6.2 µM and over 100 µM.
In the case of `O=c1[nH]c(=S)ccn1[C@@H]1O[C@H](COP(=O)(O)O)[C@@H](O)[C@H]1O`, the figures for the EC50 in [1], in experiment [3] and in [7] were over 100000 nM, over 100 µM and over 100 µM, respectively.
Regarding `O=c1[nH]c(=O)n([C@@H]2O[C@H](COP(=O)(O)OP(=O)(O)OP(=O)(O)Nc3ccccc3)[C@@H](O)[C@H]2O)cc1Br`, the EC50 was 1800 nM in [1], 6.1 µM in experiment [3] and over 100 µM in [7].
For the compound `CNc1nc(=O)ccn1[C@@H]1O[C@H](COP(=O)(O)O)[C@@H](O)[C@H]1O`, the EC50 in [1] is over 100000 nM; in [3], over 100 µM; in experiment [7] it was over 100 µM.
Turning to `O=C(Cn1c(=O)ccn([C@@H]2O[C@H](COP(=O)(O)OP(=O)(O)C(F)(F)P(=O)(O)O)[C@@H](O)[C@H]2O)c1=O)c1ccccc1`, the figures for the EC50 in [1], in experiment [3] and in [7] were 1200 nM, 1.46 µM and 3.93 µM, respectively.
In the same order, the values of `COc1nc(=O)ccn1[C@@H]1O[C@H](COP(=O)(O)O)[C@@H](O)[C@H]1O` are 9900 nM, 9.8 µM and over 100 µM.
In the same order, the values of `O=c1[nH]c(=S)ccn1[C@@H]1O[C@H](COP(=O)(O)OP(=O)(O)C(Cl)(Cl)P(=O)(O)O)[C@@H](O)[C@H]1O` are 1810 nM, 8.1 µM and 7.87 µM.
Turning to `O=c1[nH]c(=S)ccn1[C@@H]1O[C@H](COP(=O)(O)OP(=O)(O)OP(=O)(O)O)[C@@H](O)[C@H]1O`, the EC50 in [1] amounted to 26 nM; in [7] it was 0.023 µM; in experiment [10], 23 nM.
As to `CCCSc1nc(=O)ccn1[C@@H]1O[C@H](COP(=O)(O)OP(=O)(O)O)[C@@H](O)[C@H]1O`, the EC50 was 1200 nM in experiment [1], at least 100 µM in [3] and 4.9 µM in experiment [7].
In the same order, the values of `CNc1nc(=O)ccn1[C@@H]1O[C@H](COP(=O)(O)OP(=O)(O)O)[C@@H](O)[C@H]1O` are 7600 nM, over 100 µM and at least 100 µM.
On to `O=c1ccn([C@@H]2O[C@H](COP(=O)(O)OP(=O)(O)C(Cl)(Cl)P(=O)(O)O)[C@@H](O)[C@H]2O)c(=S)[nH]1`, for which the results for the EC50 in experiment [1], in experiment [3] and in experiment [7] were 794 nM, 7.7 µM and 3.85 µM, respectively.
In the same order, the values of `O=c1ccn([C@@H]2O[C@H](COP(=O)(O)O)[C@@H](O)[C@H]2O)c(SCc2ccccc2)n1` are at least 100000 nM, over 100 µM and over 100 µM.
As for `O=c1ccn([C@@H]2O[C@H](COP(=O)(O)OP(=O)(O)O)[C@@H](O)[C@H]2O)c(SCc2ccccc2)n1`, the results for the EC50 in [1], in [3] and in experiment [7] were 6200 nM, 6.8 µM and 5.98 µM, respectively.
